From US12410143B2, “Therapeutic inhibitors of the reverse mode of ATP synthase” (priority 2017, dated 2025)
“Also recorded” adds a separate entry of the source. Read-outs that look alike come from different tables or passages of the source.

Experiments:
[1] = rats, cited from earlier work
F1F0 ATP hydrolase [2] = molecular target: T1, F1F0 ATP hydrolase (Bos taurus, UniProt P00829+P19483); assay: NADH-linked sub-mitochondrial (SMP) assay of F1F0 ATP hydrolysis; format: biochemical, bovine; details: NADH-linked and NADPH-linked SMP assays [5-6]
T1 construct: in NADH-linked and NADPH-linked sub-mitochondrial (SMP) assays respectively; host or cells: sub-mitochondrial particles (SMPs)
From the text: For example, by separately assaying (in space and/or time) the compounds's effect upon ATP synthesis and ATP hydrolysis by ATP synthase (in its entirety or, less preferably, a component part of it). Then comparing these assay results. The greater the inhibition of reverse vs. forward mode, the more preferred this compound is for anti-cancer use. A further method is by screening/seeking compounds that inhibit ATP hydrolysis more than synthesis in submitochondrial particles (SMPs). ATP hydrolysis can be assayed by (non-limiting example) a spectroscopic assay for NADH fluorescence that incubates the SMPs with pyruvate kinase and lactate dehydrogenase enzymes (assay well-known to those of the art). ATP synthesis can be assayed by (non-limiting example) a spectroscopic assay for NADPH fluorescence that incubates the SMPs with hexokinase and glucose-6-phosphate dehydrogenase enzymes (assay well-known to those of the art). These assays are reported in any one of [5, 7, 8, 11, 12, 13, 36], and/or as referenced therein, all of which are herein incorporated in their entirety.
Compounds from, selected as specific anti-cancer therapeutics by the invention of this disclosure, selected because they inhibit the reverse, more than the forward, mode of ATP synthase. EC50 and IC50 used interchangeably. […]

F1F0 ATP hydrolase [3] = molecular target: T1, F1F0 ATP hydrolase; details: cited from earlier work
NCI-60 cancer cell lines [4] = assay: NCI-60 one-dose in vitro assay; format: cell-based, human
From the text: FIGS. 1, 2, 3, 4, 5, 6 show results from the NCI-60 one-dose in vitro assay at the Developmental Therapeutics Program (DTP), at the National Cancer Institute (NCI, Bethesda, MD, USA). Its protocol is well known to those of the art, and it tests the effect, if any, of a test compound on the growth/survivability of a cancer cell line as compared to the no compound control. […] However, a constant is that this 59 always has representative cell lines from leukemia, melanoma and cancers of the lung, colon, brain, ovary, breast, prostate and kidney. In a one-dose NCI compound test report, NCI report a number for each cell line, which they call “Growth Percent”, which is its growth relative to the no-compound control, and relative to the time zero number of cells. This reported parameter allows detection of both growth inhibition (values between 0 and 100) and lethality (values less than 0). For example, an NCI “Growth Percent” value of 100 means no growth inhibition. Value of 40 means 60% growth inhibition. Value of 0 means no net growth over the course of the experiment. Value of −40 means 60% lethality. Value of −100 means all cells are dead. I don't present NCI one-dose data in this original format. Instead, if the NCI “Growth Percent” value for a cell is positive, it is manipulated: [100 minus this original NCI-60 “Growth Percent” data point], to yield the percentage “Growth Inhibition”. If the original NCI “Growth Percent” value for a cell is negative, it is made positive to be the percentage of original cancer cells (at time zero) killed: “Percentage Killed” {and in these cases, of course, all growth has been inhibited, so percentage “Growth Inhibition” is then specified to be 100% for this cancer cell line}. In my one-dose figures, “Growth Inhibition” (0-100%) is presented on the x-axis and, if applicable, “Percentage Killed” (0-100%) further along on the x-axis. The latter is applicable when there is not just cancer growth inhibition but a reduction in the number of cancer cells from the start time i.e. when the compound is not merely slowing cancer growth, but is actively reducing the number of cancer cells from the starting number. In cases where there is only growth inhibition, only “Growth inhibition” is presented on the x-axis.

NCI-60 cancer cell lines [5] = assay: NCI-60 five-dose in vitro assay; format: cell-based, human; details: mean of all 59 cell lines
From the text: The compounds of this invention act by a distinctly different mechanism, upon cancer cells, than oligomycin. […] The degree of (dis)similarity can be measured using the COMPARE algorithm, which employs a Pearson correlation coefficient. […] This mechanistic distinction is vital because polyketide F1F0 ATP synthase inhibitors are poisonous to normal cells, which means they fail in cancer xenograft mouse experiments and are without clinical utility.
Results from the NCI-60 five-dose in vitro assay at the Developmental Therapeutics Program (DTP), at the National Cancer Institute (NCI, Bethesda, MD, USA). In this assay, which is well known to those of the art, a compound is tested, in vitro, against 59 different cancer cell lines, sourced from 9 different tissue types, across 5 different concentrations. On the y-axis is the aforementioned “Growth Percentage” parameter used by NCI, which is growth relative to the no-compound control, and relative to the time zero number of cells. This parameter allows detection of both growth inhibition (values between 0 and 100) and lethality (values less than 0). […] Each cancer cell line has a GI50 value and the “mean GI50” of all 59 cell lines can be calculated.

ex vivo rat heart = details: 10 μM [11]; cited from earlier work
F1F0-ATP hydrolysis = molecular target: T2, F1F0-ATP hydrolysis (Homo sapiens, UniProt P06576+P25705); details: cited from earlier work
T2 construct: BTB06584 potency information (isn't an EC50) is from a whole cell study [13]

F1F0-ATP synthesis = molecular target: T3, F1F0-ATP synthesis (Homo sapiens, UniProt P06576+P25705); details: [13]; cited from earlier work
T3 construct: BTB06584 potency information (isn't an EC50) is from a whole cell study [13]

mouse cortical neurons = details: 100 μM [13]; cited from earlier work
[6] = test system: HL-1 cardiac muscle cell line; details: 3 μM; HL-1 cells; data from [12]; cited from earlier work
[7] = test system: xenograft mouse models of cancer; details: data in [16]; cited from earlier work
[8] = cited from earlier work
[9] = Formula (I) examples, SMP data from [5], read-out: EC50 F1F0 ATP hydrolase

N#Cc1cccc(C(=O)/N=C(\Nc2ccc(Cl)cc2)N[C@H](Cn2ccnc2)c2ccc(Cl)cc2Cl)c1
Cmax [1]: 21 µM | volume of distribution [1]: 2.37 L/kg | half-life in blood ([1]; intravenously applied drug): 2.1 h | orally bioavailable ([1]; polyethyleneglycol:water:ethanol, 1:1:1): 47% | [EC50 F1F0 ATP synthesis/EC50 F1F0 ATP hydrolysis] ratio (F1F0 ATP hydrolase [2]): > 5,556 | EC50 (F1F0 ATP hydrolase [3]; Best Mode structure, SMP assay [5-6], read-out: EC50 against F1F0ATP hydrolysis): 0.018 µM

N#CN=C(Nc1cccc(Cl)c1Cl)NC(Cn1ccnc1)c1ccc(Cl)cc1Cl (centres unmarked) [2,3-Cl2/CN]
EC50 (F1F0 ATP hydrolase [3]; [9]): 2.49 µM

N#CN=C(Nc1cccc(Cl)c1)NC(Cn1ccnc1)c1ccc(Cl)cc1Cl (centres unmarked) [3-CL/CN]
EC50 (F1F0 ATP hydrolase [3]; [9]): 9.17 µM

CC(=O)Nc1ccc(S(=O)(=O)N2Cc3ccccc3N(Cc3cnc[nH]3)C(CCc3ccccc3)C2)cc1 (centres unmarked) [4-(AcNH)—Ph/SO2/5-yl]
EC50 (F1F0 ATP hydrolase [3]; Formula (II) examples, SMP data from [8], read-out: EC50F1F0ATP hydrolase): 2.98 µM

N#Cc1ccc(C(=O)N=C(Nc2ccc(Cl)cc2)NC(Cn2ccnc2)c2ccc(Cl)cc2Cl)cc1 (centres unmarked) [4-Cl/C(═O)4-CN—Ph]
EC50 (F1F0 ATP hydrolase [3]; [9]): 0.28 µM

CCC(=O)N=C(Nc1ccc(Cl)cc1)NC(Cn1ccnc1)c1ccc(Cl)cc1Cl (centres unmarked) [4-Cl/C(═O)Et]
EC50 (F1F0 ATP hydrolase [3]; [9]): 2.27 µM

N#CN=C(Nc1ccc(Cl)cc1)NC(Cn1ccnc1)c1ccc(Cl)cc1Cl (centres unmarked) [4-Cl/CN]
EC50 (F1F0 ATP hydrolase [3]; [9]): 8.8 µM

N#Cc1cccc(C(=O)/N=C(\Nc2ccc(Cl)cc2)N[C@@H](Cn2ccnc2)c2ccc(Cl)cc2Cl)c1 [6a]
anti-cancer activity (NCI one-dose assay) (NCI-60 cancer cell lines [4]; 10 μM): exerted anti-cancer activity | inhibits F1F0-ATP hydrolysis (F1F0 ATP hydrolase [3]; stereoisomers of 19a [5-6]): not

N#Cc1cccc(C(=O)/N=C(\Nc2ccc(Cl)cc2)NC(Cn2ccnc2)c2ccc(Cl)cc2Cl)c1 (centres unmarked) [19a]
anti-cancer activity (NCI one-dose assay) (NCI-60 cancer cell lines [4]; 10 μM): more anti-cancer activity than BMS-199264

CC1(C)Oc2ccc(S(=O)(=O)N3CCCCC3)cc2[C@@H](N(Cc2ncc[nH]2)c2ccc(Cl)cc2)[C@@H]1O.Cl [BMS-199264 hydrochloride]
anti-cancer activity (NCI one-dose assay) (NCI-60 cancer cell lines [4]; 10 μM): Anti-cancer activity | anti-cancer activity (NCI one-dose assay) (NCI-60 cancer cell lines [4]; 100 μM): Anti-cancer activity | GI50 (NCI-60 cancer cell lines [5]): 3.9 µM

CC1(C)Oc2ccc(S(=O)(=O)N3CCCCC3)cc2[C@@H](N(Cc2ncc[nH]2)c2ccc(Cl)cc2)[C@@H]1O [BMS-199264]
anti-cancer activity (NCI one-dose assay) (NCI-60 cancer cell lines [4]; 10 μM): exerts anti-cancer activity | harm to normal cells (ex vivo rat heart) (ex vivo rat heart): does not harm ex vivo rat heart; also recorded: doesn't harm normal cells

O=C(Oc1cc(S(=O)(=O)c2ccccc2)ccc1[N+](=O)O)c1ccc(Cl)cc1 [BTB06584]
anti-cancer activity (NCI one-dose assay) (NCI-60 cancer cell lines [4]; 10 μM): No anti-cancer activity and none | anti-cancer activity (NCI one-dose assay) (NCI-60 cancer cell lines [4]; 100 μM): exerts anti-cancer activity | inhibitory potency for F1F0-ATP hydrolysis (F1F0-ATP hydrolysis; 10 μM [13]): none | concentration required for inhibiting F1F0-ATP hydrolysis (F1F0-ATP hydrolysis; whole cell study [13]): ≥ 100 µM | inhibition of F1F0-ATP synthesis (F1F0-ATP synthesis): not inhibiting F1F0-ATP synthesis | harm to normal cells (mouse cortical neurons) (mouse cortical neurons): isn't harmful to normal cells

CC[C@H]1/C=C/C=C/C[C@@H](C)[C@H](O)[C@@](C)(O)C(=O)[C@@H](C)[C@H](O)[C@@H](C)C(=O)[C@@H](C)[C@H](O)[C@@H](C)/C=C/C(=O)O[C@@H]2[C@H](C)[C@H](CC1)O[C@@]1(O[C@@H](C[C@@H](C)O)[C@@H](C)CC1=O)[C@H]2C [Oligomycin B]
O2 consumption change [6]: −40%

CC[C@H](O)C[C@@H]1O[C@]2(CC[C@H]1C)C[C@@H]1OC(=O)/C=C/[C@](C)(O)[C@@H](O)[C@H](C)[C@@H](O)[C@@H](O[C@H]3C[C@@H](OC)[C@@H](O)[C@@H](C)O3)[C@H](O)[C@](C)(O)CCC/C=C\[C@H]3C[C@H](C)CO[C@@]3(O)C[C@H](O2)[C@H]1C [cytovaricin]
efficacy in xenograft mouse models of cancer [7]: don't work

CC[C@H]1/C=C/C=C/C[C@@H](C)[C@H](O)[C@@](C)(O)C(=O)[C@@H](C)[C@H](O)[C@@H](C)C(=O)[C@@H](C)[C@H](O)[C@@H](C)/C=C/C(=O)O[C@@H]2[C@H](C)[C@H](CC1)O[C@]1(CC[C@H](C)[C@H](C[C@@H](C)O)O1)[C@H]2C [oligomycin]
inhibition of F1F0 ATP hydrolysis versus F1F0 ATP synthesis (F1F0 ATP hydrolase [3]; SMP assays [11]): inhibits F1F0 ATP hydrolysis less than F1F0 ATP synthesis | time within which healthy rats are killed ([8]; 1 mg/kg, n=10): ≤ 48 h | LD33 ([8]; rats): 0.5 mg/kg

CC[C@@H](O)C[C@H]1CCC[C@@]2(C[C@@H]3OC(=O)/C=C/[C@@](C)(O)[C@@H](O)[C@H](C)[C@@H](O)[C@H](O[C@H]4CC[C@H](N(C)C)[C@H](C)O4)[C@@H](O)[C@](C)(O)CCCCC/C=C/[C@@H]4CC(C)(C)O[C@@]4(O)C[C@H](O2)[C@H]3C)O1 [ossamycin]
efficacy in xenograft mouse models of cancer [7]: don't work
